Assay results as given in patent publication US20120149647A1, “Methods for Assessing the Efficacy of Gemcitabine or Ara-C Treatment of Cancer Using Human Antigen R Levels” (priority 2009, published 2012).
Entries after “also recorded” stand apart in the source; their conditions may differ.

Columns and labels:
[1] = system: pancreatic cancer cell lines MiaPaca2, PL-5, and Hs766t; assay: Drug sensitivity assay (PicoGreen cell survival), HuR-overexpressing vs control lines; type: cell-based; settings: PicoGreen cell survival after 5-7 days of drug, HuR vs empty vector/control cells
From the text: HuR cDNA sequence was cloned into the pcDNA 3.1. Zeo vector (Invitrogen) for stable transfection of pancreatic cancer cell lines MiaPaca2, PL-5, and Hs766t. Pooled cells remained under selection media containing Zeocin (Invitrogen) for several months after transfection. Mia.HuR, PL5.HuR, and Hs766t. HuR denote link overexpressing lines; Mia.EV, PL5.EV, and Hs766t denote empty vector or control lines. HuR and control siRNA sequences and transfection conditions were as described.
Mia.HuR, Mia.EV, Hs766t.HUR, Hs766t, and PL5.HuR, PL5.EV cells were seeded (1000 cells/well) in 96-well plates and treated with Etoposide, 5-Fluorouracil, Cis-platin, Staurosporine, Nocodazole, Colcemid, Ara-C (Sigma), and GEM (Gemzar, Eli-Lilly, Indianapolis, Ind.) for 6-7 days. After treatment, cells were washed with PBS and lysed with 100 μL of water/well; cell viability was quantified by staining of double-stranded DNA with QuantiT™ PicoGreen (Invitrogen) and analyzed with a TECAN SpectraFluor.

[2] = system: pancreatic ductal adenocarcinoma; assay: Overall survival of resected PDA patients receiving GEM, stratified by cytoplasmic HuR; type: in vivo; settings: for adjusted hazard ratio of low to high HuR: adjusted for age, sex, Xeloda use and radiation therapy
Procedure: HuR immunostaining was performed on 32 resected PDA specimens from the Thomas Jefferson University pathology archives after IRB approval. All patients received GEM, alone or in combination with XELODA® (Capecitabine) (2 patients), radiation therapy (8 patients) or both (2 patients). The experienced pancreatic pathologist (A.K.W.) reviewed all cases in a blinded fashion and classified the tumors as well differentiated (n=6), moderately differentiated (n=22), or poorly differentiated […]. For each case, representative sections were selected for immunohistochemical analysis of HuR cytoplasmic and nuclear staining patterns, which were scored using the following scale: 0 for no staining, 1 for weak and/or focal (<10% of the cells) staining; 2 for moderate or strong, staining (10-50% of the cells); and 3 for moderate or strong staining (>50% of the cells). Combined scores 0 and 1 represented low expression, while combined scores 2 and 3 represented high expression.

[3] = system: HuR association with dCK mRNA in MiaPaCa2 cells; assay: RNP IP assay of HuR association with dCK mRNA; dCK protein and mRNA levels; type: cell-based; settings: GEM treatment
Procedure: MiaPaCa2 cells were treated with 4 μM GEM and collected 48 hours later. For biotin pulldown analysis (Kuwano Y, et al. Mol Cell Biol 2008; […]), cytoplasmic extracts were isolated using, the NE-PER® Nuclear and Cytoplasmic Extraction Reagents Kit (Pierce Biotechnology) Probes for biotin pull-down analysis were synthesized as described (Kuwano Y, et al. Mol Cell Biol 2008; […] using the following PCR primers (sense and antisense, respectively) containing the T7 RNA polymerase promoter sequence […] (T7) (SEQ ID NO: 1): (T7)[…] (SEQ ID NO: 2) and […] (SEQ ID NO: 3) for dCK 3′UTR; (T7)[…] (SEQ ID NO: 4) and […] (SEQ ID NO: 5) for GAPD 3′UTR (Casolaro V, et al. J Allergy Clin Immunol 2008; 121:853-9 e4) (see supplemental figure for depiction of UTR positions). Biotinylated probes were synthesized using the MAXIscript T7 kit (Ambion) and Biotinylated dCTP (Enzo Life Sciences). For immunoprecipitation of endogenous RNA-protein complexes (RNP IP) from cytoplasmic (450 μg) extracts, reactions were carried out as described (Kuwano Y, et al. Mol Cell Biol 2008; 28:4562-75), using protein A Sepharose beads (Sigma) that were precoated with 30 μg of either mouse immunoglobulin G1 (IgG1; BD Biosciences), or anti-HuR antibodies. […] GAPDH and dCK transcripts were quantified by real-time PCR analysis using each specific primers: […] […]

[4] = system: Mia.EV and Mia.HuR cell lines; assay: Cell cycle analysis and apoptosis assay (flow cytometry); type: cell-based; settings: 0.03 μM GEM, 48 h
Procedure: Mia.EV and Mia.HuR cell lines were either left untreated or treated with 0.03 μM GEM for 48 h. For cell cycle analysis, cells were then fixed in 100% ethanol, and stained with a propidium iodide solution containing RNAse A (Sigma Aldrich). For apoptosis assays, cells were resuspended at 10^6 cells/mL and incubated in Annexin V and Propidium Iodide, following the manufacturers' protocol (FITC Annexin V, BD Pharmigen). Both assays were analyzed by flow cytometry.

HuR in MiaPaCa2 cells = assay: HuR levels and localization by immunoblot and immunofluorescence; type: cell-based; settings: parental MiaPaCa2 cells, GEM treatment
Procedure: Cells were plated on LabTek II™ Chamber slides (Fisher Scientific) and fixed in 3% paraformaldehyde (20 min, RT). Cells were washed with PBS and permeabilized using 0.5% Triton X-100/1% normal goat serum (Vector Laboratories) in PBS (15 min). After washes in 1% goat serum/PBS, cells were incubated (1:50 dilution, 1 hr, RT) with mouse anti-HuR (Santa Cruz) or anti-deoxycytidine kinase (dCK, Abnova) primary antibodies. After washes in PBS, cells were incubated for 1 hr with goat anti-mouse secondary antibody (1:400, Alexa Fluor 647, Molecular Probes). Nuclei were stained with DAPI and cells were evaluated under a Zeiss LSM-510 Confocal Laser Microscope.
Whole-cell, cytoplasmic, and nuclear lysates were prepared as described (Kuwano Y, et al. Mol Cell Biol 2008; 28:4562-75), and protein was size-fractionated by SDS-PAGE (10% acrylamide). Membranes were blocked for 1 h in 5% Milk/TBS-T and incubated overnight with monoclonal antibodies (Santa Cruz) recognizing HuR, dCK, the cytoplasmic marker α-Tubulin, or the nuclear marker hnRNP. Membranes were washed with TBS-T and incubated with secondary antibodies; and the resulting signals were visualized by chemiluminescence (Millipore). Total protein was visualized with Fast Green (USB).

[5] = patients receiving GEM, listed as gemcitabine

Row | Structure (SMILES) | sensitivity of HuR-overexpressing cell lines compared with control lines [1] | hazard ratio of low to high HuR, univariate Cox regression ([2]; patients receiving GEM) | adjusted hazard ratio of low to high HuR ([2]; patients receiving GEM) | adjusted hazard ratio of low to high HuR [2, 5] | hazard ratio of low to high HuR, univariate Cox regression [2, 5] | increase in risk of death, low vs high HuR levels [2, 5] [fold] | median overall survival time for patients on GEM ([2]; resected PDA patients, GEM alone or combined) [days] | overall dCK protein or mRNA levels [3] | HuR's association with dCK mRNA ([3]; RNP IP) | sensitivity of HuR-overexpressing cell lines compared with control lines ([1]; listed as gemcitabine) | apoptosis of HuR overexpressing cells compared to control cells [4] | cell cycle distribution of HuR overexpressing cells compared to control cells [4] | cytoplasmic HuR levels (HuR in MiaPaCa2 cells) | whole-cell HuR levels (HuR in MiaPaCa2 cells)
1 | Nc1ccn([C@@H]2O[C@H](CO)[C@@H](O)[C@@H]2O)c(=O)n1 [Ara-C, Cytarabine] | selectively more sensitive; also recorded: hypersensitive |  |  |  |  |  |  |  |  |  |  |  |  | 
2 | Nc1ccn(C2OC(CO)C(O)C2(F)F)c(=O)n1 (stereo not drawn) [GEM, 4-amino-1-[3,3-difluoro-4-hydroxy-5-(hydroxymethyl)tetrahydrofuran-2-yl]-1H-pyrimidin-2-one] | more sensitive | 4.48 | 7.34 | 5.04 | 3.36 | 5 | 619 | did not alter | significantly increased | strikingly hypersensitive | increased apoptosis | selective enrichment in the S-phase | significantly increased | did not alter
